{"source": "patent US7378411B2", "about": "“Substituted thienopyrimidinones as a mitotic kinesin inhibitor” (Merck & Co., Inc., priority 2001, dated 2008)"}
{"target": "T1, human KSP motor domain (Homo sapiens, UniProt P52732)", "T1 construct": "were used to amplify the motor domain and the neck linker region; made in house; host or cells: E. coli BL21 (DE3), pRSETa", "T1 sequence (P52732 18-359 limits assumed)": "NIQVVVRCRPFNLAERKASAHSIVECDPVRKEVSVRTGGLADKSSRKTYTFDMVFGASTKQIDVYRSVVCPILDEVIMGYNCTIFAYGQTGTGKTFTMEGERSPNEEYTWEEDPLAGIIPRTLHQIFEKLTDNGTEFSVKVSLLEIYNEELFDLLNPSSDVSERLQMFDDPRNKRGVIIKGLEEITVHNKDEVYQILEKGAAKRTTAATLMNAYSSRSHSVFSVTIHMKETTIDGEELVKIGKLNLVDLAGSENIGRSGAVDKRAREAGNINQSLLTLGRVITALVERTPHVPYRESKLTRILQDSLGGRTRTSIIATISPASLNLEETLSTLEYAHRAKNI", "experiment": "Kinesin ATPase In Vitro Assay", "format": "biochemical", "conditions": "KSP(367H) motor domain with microtubules, 1 mM ATP, 23° C.; free phosphate by quinaldine red/ammonium molybdate", "from_the_text": "I. Kinesin ATPase In Vitro Assay\nCloning and Expression of Human Poly-histidine Tagged KSP Motor Domain (KSP(367H))\nPlasmids for the expression of the human KSP motor domain construct were cloned by PCR using a pBluescript full length human KSP construct (Blangy et al., Cell, vol. 83, pp 1159-1169, 1995) as a template. The N-terminal primer 5′-[…] (SEQ.ID.NO.:) and the C-terminal primer 5′-[…] […] (SEQ.ID.NO.:) were used to amplify the motor domain and the neck linker region. The PCR products were digested with AseI and XhoI, ligated into the NdeIl/XhoI digestion product of pRSETa (Invitrogen) and transformed into E. coli BL21 (DE3).\nCells were grown at 37° C. to an OD600 of 0.5. After cooling the culture to room temperature expression of KSP was induced with 100 μM IPTG and incubation was continued overnight. Cells were pelleted by centrifugation and washed once with ice-cold PBS. Pellets were flash-frozen and stored −80° C.\nCell pellets were thawed on ice and resuspended in lysis buffer (50 mM K-HEPES, pH 8.0, 250 mM KCl, 0.1% Tween, 10 mM imidazole, 0.5 mM Mg-ATP, 1 mM PMSF, 2 mM benzimidine, 1× complete protease inhibitor cocktail (Roche)). Cell suspensions were incubated with 1 mg/ml lysozyme and 5 mM β-mercaptoethanol on ice for 10 minutes, followed by sonication (3×30 sec). All subsequent procedures were performed at 4° C. Lysates were centrifuged at 40,000×g for 40 minutes. Supernatants were diluted and loaded onto an SP Sepharose column (Pharmacia, 5 ml cartridge) in buffer A (50 mM K-HEPES, pH 6.8, 1 mM MgCl2, 1 mM EGTA, 10 μM Mg-ATP, 1 mM DTT) and eluted with a 0 to 750 mM KCl gradient in buffer A. Fractions containing KSP were pooled and incubated with Ni-NTA resin (Qiagen) for one hour. The resin was washed three times with buffer B (Lysis buffer minus PMSF and protease inhibitor cocktail), followed by three 15-minute incubations and washes with buffer B. Finally, the resin was incubated and washed for 15 minutes three times with buffer C (same as buffer B except for pH 6.0) and poured into a column. KSP was eluted with elution buffer (identical to buffer B except for 150 mM KCl and 250 mM imidazole). KSP-containing fractions were pooled, made 10% in sucrose, and stored at −80° C.\nMicrotubules are prepared from tubulin isolated from bovine brain. Purified tubulin (>97% MAP-free) at 1 mg/ml is polymerized at 37° C. in the presence of 10 μM paclitaxel, 1 mM DTT, 1 mM GTP in BRB80 buffer (80 mM K-PIPES, 1 mM EGTA, 1 mM MgCl2 at pH 6.8). The resulting microtubules are separated from non-polymerized tubulin by ultracentrifugation and removal of the supernatant. The pellet, containing the microtubules, is gently resuspended in 10 μM paclitaxel, 1 mM DTT, 50 μg/ml ampicillin, and 5 μg/ml chloramphenicol in BRB80.\nThe kinesin motor domain is incubated with microtubules, 1 mM ATP (1:1 MgCl2: Na-ATP), and compound at 23° C. in buffer containing 80 mM K-HEPES (pH 7.0), 1 mM EGTA, 1 mM DTT, 1 mM MgCl2, and 50 mM KCl. […] Free phosphate from the ATP hydrolysis reaction is measured via a quinaldine red/ammonium molybdate assay by adding 150 μl of quench C buffer containing a 2:1 ratio of quench A:quench B. Quench A contains 0.1 mg/ml quinaldine red and 0.14% polyvinyl alcohol; quench B contains 12.3 mM ammonium molybdate tetrahydrate in 1.15 M sulfuric acid. The reaction is incubated for 10 minutes at 23° C., and the absorbance of the phospho-molybdate complex is measured at 540 nm.", "units": {"IC50": "µM"}}
{"smiles": "CCC(c1nc2ccsc2c(=O)n1Cc1ccccc1)N(CCN(C)C)C(=O)c1ccc(Br)cc1", "note": "(centres unmarked) [Compound 1-8, N-[1-(3-Benzyl-4-oxo-3,4-dihydrothieno[3,2-d]pyrimidin-2-yl)propyl]-4-bromo-N-[2-(dimethylamino)ethyl]benzamide]", "IC50": "≤ 50"}
{"smiles": "CCC(c1nc2sc(Br)c(Br)c2c(=O)n1Cc1ccccc1)N(CCN(C)C)C(=O)c1ccc(Br)cc1", "note": "(centres unmarked) [Compound 2-9, N-[1-(3-benzyl-5,6-dibromo-4-oxo-3,4-dihydrothieno[2,3-d]pyrimidin-2-yl)propyl]-4-bromo-N-[2-(dimethylamino)ethyl]benzamide]", "IC50": "≤ 50"}
{"smiles": "CCC(c1nc2sccc2c(=O)n1Cc1ccccc1)N(CCN(C)C)Cc1ccc(Br)cc1", "note": "(centres unmarked) [Compound 4-1, 3-benzyl-2-(1-{(4-bromobenzyl)[2-(dimethylamino)ethyl]amino}propyl)thieno[2,3-d]pyrimidin-4(3H)-one]", "IC50": "≤ 50"}
{"smiles": "CCC(c1nc2sc(Br)cc2c(=O)n1Cc1ccccc1)N(CCN(C)C)C(=O)c1ccc(Br)cc1", "note": "(centres unmarked) [Compound 2-10, N-[1-(3-benzyl-6-bromo-4-oxo-3,4-dihydrothieno[2,3-d]pyrimidin-2-yl)propyl]-4-bromo-N-[2-(dimethylamino)ethyl]benzamide]", "IC50": "≤ 50"}
{"smiles": "CCC(c1nc2sccc2c(=O)n1Cc1ccccc1)N(CCN(C)C)C(=O)c1ccc(Br)cc1", "note": "(centres unmarked) [Compound 3-2, N-[1-(3-benzyl-4-oxo-3,4-dihydrothieno[2,3-d]pyrimidin-2-yl)propyl]-4-bromo-N-[2-(dimethylamino)ethyl]benzamide]", "IC50": "≤ 50"}
